Laboratory results as given in patent EP3069725A1, “GLORIOSA SUPERBA L. EXTRACTS, COMPOSITIONS AND USE THEREOF” (priority 2015, dated 2016).

How the values were obtained:
cancer cells [1] = conditions: literature comparison with colchicine; cited from earlier work
cancer cells [2] = conditions: literature; cited from earlier work
PANC02 cells = assay: In vivo efficacy study, subcutaneous PANC02 tumour model; set-up: species or system C57BL/6 mice; conditions: 60 mg/kg BW gemcitabine IP, 3 times/week
Experimental: Cultures of PANC02 cells were harvested using a 0.05% trypsin solution, washed twice in sterile PBS and resuspended in sterile PBS at a concentration of 30 x 10^6 cells per mL. The viable cells were counted by using the Muse® Cell Analyzer. The mice (n = 56) were inoculated with 100 µL of the cell suspension in the right hind limb. Each mouse was randomly assigned to one of 8 groups (n = 6-8 mice per group) receiving a different treatment (Table 2). Tumour growth of the subcutaneous model was evaluated with calliper measurements from the moment the tumours became palpable and this three times a week before treatment and daily during treatment. The tumour volume was calculated by means of formula V = 0.5 x ab^2, with a and b being the long and short axes of the tumour, respectively. Table 2 - Group treatment assignment
Treatment was administered during 10 days, starting 19 days after tumour inoculation when tumours had reached a volume of approximately 300-400 mm^3. The first day of treatment was assigned "day 1". […] For both extracts the total amount of colchicine and its derivatives (calculated as colchicine) was the same, but the amount of colchicine itself in the extracts was different. […] To evaluate the effect of the treatment, tumour volume was measured daily during treatment and the mice were sacrificed on day 11.
Results were expressed as mean values of parameters ± standard error (SE). […]

Q: For `COc1cc2c(c(OC)c1O)-c1ccc(OC)c(=O)cc1[C@@H](NC(C)=O)CC2` [2-O-demethylcolchicine], which in vivo potency (cancer cells [1]) is on record?
A: 13.8 µmol/kg

Q: With `COc1cc2c(c(OC)c1OC)-c1ccc(OC)c(=O)cc1[C@@H](NC(C)=O)CC2` [COL, colchicine] as the compound, how does the in vivo potency (cancer cells [1]) read?
A: 0.4 µmol/kg

Q: For `COc1c(O[C@@H]2O[C@H](CO)[C@@H](O)[C@H](O)[C@H]2O)cc2c(c1OC)-c1ccc(OC)c(=O)cc1[C@@H](NC(C)=O)CC2` [Colchicoside], which activity in vitro (cancer cells [2]) is on record?
A: not active

Q: What does the source list for `Nc1ccn([C@@H]2O[C@H](CO)[C@@H](O)C2(F)F)c(=O)n1` [Gemcitabine, gemcitabine]?
A: % TGI (7 days) (PANC02 cells; day 7): 90%; % TGI (10 days) (PANC02 cells; day 10): 99%
